Article PMC6356859 (ACS Omega, 2019)
“Also recorded” adds a separate entry of the source. Like-named read-outs stand apart in the source and are kept apart here.

Tests used:
EBOV [1] = test: microbe, parasite or virus in culture; type: cell-based, Ebola virus
EBOV [2] = details: cited from earlier work
EBOV [3] = details: read-out: IC50 for the inhibition of virus entry in cells; cited from earlier work
EBOV [4] = details: cited from earlier work; remark: listed apart in the source

Nc1nc2c(ncn2COCCO)c(=O)[nH]1 [Acyclovir]
EBOV activity (in words) (EBOV [1]): lacked an activity

C[C@H]1[C@H](OC(=O)CCC(=O)O)O[C@@H]2O[C@@]3(C)CC[C@H]4[C@H](C)CC[C@@H]1[C@@]24OO3 [Artesunate]
IC50 (EBOV [1]; Zaire ebolavirus, HeLa, read-out: IC50 (EBOV inhibitory activity)): 8.2 µM

C[C@H]1Cc2c([nH]c3cc(Cl)c(F)cc23)[C@@]2(N1)C(=O)Nc1ccc(Cl)cc12 [Cipargamin]
selectivity indexes (EBOV [1]): < 5

NC(=O)c1nc(F)c[nH]c1=O [Favipiravir (T-705), Favipiravir]
EBOV activity (in words) (EBOV [1]): inactive; also recorded: no activity at the concentrations tested | EC50 (EBOV [2]): 10 to 63 µg/mL | IC50 (EBOV [2]): 67 µM

CCCCN(CCCC)CC(O)c1cc(Cl)cc2c1-c1ccc(Cl)cc1/C2=C/c1ccc(Cl)cc1 (stereo not shown) [Lumefantrine]
EBOV activity (in words) (EBOV [1]): inactive

Clc1ccc2c(N3CCN(CCCN4CCN(c5ccnc6cc(Cl)ccc56)CC4)CC3)ccnc2c1 [Piperaquine Phosphate 4H20]
EBOV activity (in words) (EBOV [1]): inactive

CCN(CC)Cc1cc(Nc2ccnc3cc(Cl)ccc23)ccc1O [amodiaquine]
IC50 (EBOV [3]): 2600 nM

CCN(CC)CCCC(C)Nc1ccnc2cc(Cl)ccc12 (stereo not shown) [chloroquine]
EC50 (EBOV [4]): 4 µM
